# Experimental data: patent publication US20260125374A1, “PI3K-ALPHA INHIBITORS AND METHODS OF MAKING AND USING THE SAME” (Relay Therapeutics, Inc., priority 2021, published 2026)
# pIC50: −log10 of the molar value. Marks after values point to notes of the source that are not given here.
# Columns and labels:
# [1] = Stability of III-1 & I-1 solid; format: physicochemical; details: after 38 days; initial 99.0%
# [2] = Polymorph screening (equilibration, anti-solvent, slow evaporation, slow cooling, temperature cycling, heating-cooling; XRPD and SFC); format: physicochemical
# Protocol: This polymorph screening program of compound I-1 free form was performed with two batches of the pure enantiomer. Both batches are crystalline and is assigned as Form A. The polymorphic behaviors of the enantiomer were investigated by equilibration at 25° C. and 50° C., equilibration under a temperature cycle, crystallization from hot saturated solutions by slow cooling, slow evaporation, precipitation by addition of anti-solvent, and DSC heating-cooling cycle experiments. Relative stability of identified polymorphs was investigated by competitive slurry experiments.
# (§1) About 50 mg of I-1 Form A was weighed into a 2 mL glass vial and equilibrated in suitable amount of solvents (pretreated by molecular sieves) at 25° C. for 2 weeks with a stirring plate and with protection from light. Obtained suspensions were filtered with 0.45 μm nylon membrane and the solid parts (wet cake) were investigated by XRPD. When differences were observed, additional investigations were performed (e.g. DSC, TGA, ^1H-NMR, SFC).
# as §1, with “into” for “into a”, “vials” for “vial”, “50°” for “25°”, “10 days” for “2 weeks”, “investigation was” for “investigations were”
# I-1 Form A was dissolved in a good solvent. […] The solvents used were pretreated by molecular sieve. Precipitates were collected by filtration. The solid part (wet cake) was investigated by XRPD. […] When differences were observed, additional investigations were performed (e.g. DSC, TGA, ^1H-NMR, SFC).
# Based on approximate solubility results, I-1 Form A was dissolved in suitable amount of solvents (pretreated by molecular sieves). Obtained solutions were filtered by 0.45 μm nylon filter. […] Solid residues were examined for their polymorphic form. When differences were observed, additional investigations were performed (e.g. DSC, TGA, ^1H-NMR, SFC).
# Approximate 50 mg of batch I-1 Form A were dissolved in the minimal amount of selected solvents (without pretreatment by molecular sieves) at 50° C. Obtained solutions were filtered by 0.45 μm nylon filter. […] Precipitates were collected by filtration. The solid parts (wet cake) were investigated by XRPD. When differences were observed, additional investigations were performed (e.g. DSC, TGA, ^1H-NMR, SFC). When no precipitation was obtained or only a few solids were obtained, the solutions were placed at 5° C. for crystallization.
# About 50 mg of I-1 Form A was equilibrated in different solvents (pretreated by molecular sieves) under a temperature cycle between 5° C. to 50° C. at a heating/cooling rate of 0.2° C./min for 10 cycles and with protection from light. After 10 cycles, precipitates were collected at 5° C. by filtration. The solid parts (wet cake) were investigated by XRPD. When differences were observed, additional investigations were performed (e.g. DSC, TGA, 1H-NMR, SFC).
# Polymorphic behavior of I-1 Form A was investigated by two different heating-cooling cycles of DSC. Cycle 1:30° C. to 280° C. at 10° C./min; 280° C. to −20° C. at 20° C./min; reheat to 300° C. at 10° C./min. Cycle 2:30° C. to 280° C. at 10° C./min; 280° C. to-20° C. at 2° C./min; reheat to 300° C. at 10° C./min.
# [3] = Solubility in DCM/Methanol mixtures; format: physicochemical
# Protocol: The solubility was evaluated on various ratio of DCM and Methanol mixtures.
# [4] = Stability of the process (III-1 in solution); format: physicochemical
# [5] = system: PIK3CA-mediated AKT phosphorylation in MCF10A cells overexpressing hotspot PIK3CA mutations (H1047R, E542K, E545K); assay: MCF10A Cell-Based PIK3CA Kinase Assay (CisBio Phospho-AKT (Ser473) HTRF assay); details: Homo sapiens, MCF-10A, 2 hours compound incubation, read-out: Cell - PD - MCF10A H1047R/−−2483 (IC50)
# Protocol: Selected compounds of the present disclosure were tested in a MCF10A Cell-Based PIK3CA Kinase Assay, namely the CisBio Phospho-AKT (Ser473) HTRF assay, to measure the degree of PIK3CA-mediated AKT phosphorylation. MCF10A cells (immortalized non-transformed breast cell line) overexpressing hotspot PIK3CA mutations (including H1047R, E542K, and E545K mutations) were used. Cells were seeded at 5,000 cells per well in DMEM/F12 (Thermo Fisher Scientific) supplemented with […], 100 ng/ml Cholera Toxin, 10 μg/mL insulin, and 0.5% horse serum. Once plated, cells were placed in a 5% CO2, 37° C. incubator to adhere overnight.
# The following day, compounds were added to the cell plates in 12 doses of 1:3 serial dilutions. The dose response curves were run in duplicate. Compound addition was carried out utilizing an Echo 55 Liquid Handler acoustic dispenser (Labcyte). The cell plates were incubated for 2 hours in a 5% CO2, 37° C. incubator. Following compound incubation, the cells were lysed for 60 min at room temperature. Finally, a 4-hour incubation with the HTRF antibodies was performed at room temperature. All reagents, both lysis buffer and antibodies, were used from the CisBio pAKT S473 HTRF assay kit, as per the manufacturers protocol. Plates were read on an Envision 2105 (Perkin Elmer), and the IC50 values were calculated using Genedata software.
# [6] = Before stirring, 3 g product in solution
# [7] = dissolved in DCM/MeOH/DMF, concentrated to 3V, 16 h, 40° C.
# [8] = dissolved in MeOH, 34 h, 50° C.
# [9] = dissolved in MeOH, 42 h, 50° C.
# [10] = dissolved in MeOH, 60 h, 50° C.
# [11] = dissolved in MeOH, stirred 18 h, 34° C.
compound,measurement,setting,value
"N#Cc1c(-c2cc(NC(=O)c3cc(F)cc(C(F)(F)F)c3)c3c(c2)C(=O)NC3c2cc(F)ccc2Cl)ccc2ncnn12 (racemic) [III-1, N-(3-(2-chloro-5-fluorophenyl)-6-(5-cyano-[1,2,4]triazolo[1,5-a]pyridin-6-yl)-1-oxoisoindolin-4-yl)-3-fluoro-5-(trifluoromethyl)benzamide]",purity of solid after storage,[1],99.1%
same,ee %(SFC),"[2]; anti-solvent precipitation: MeOH / MTBE(4V), stirred at 25° C. for 23 days, SFC immediately after preparation",ee % (SFC): 2.7%*
same,ee %(SFC),"[2]; equilibration at 50° C. for 10 days in ACN/water(80:20, v/v), SFC immediately after preparation",ee % (SFC): 50.7%*.
same,ee %(SFC),"[2]; equilibration at 50° C. for 10 days in Acetone/water(60:40, v/v), SFC immediately after preparation",ee % (SFC): 56.9%*
same,ee %(SFC),"[2]; equilibration at 50° C. for 10 days in EtOH/water(50:50, v/v), SFC after preparation for about 12 h",ee % (SFC): 75.0%#;
same,ee %(SFC),"[2]; equilibration at 50° C. for 10 days in EtOH/water(50:50, v/v), SFC immediately after preparation","ee % (SFC): 76.9%*,"
same,ee %(SFC),"[2]; equilibration at 50° C. for 10 days in Methanol, SFC immediately after preparation",ee % (SFC): 48.4%*
same,ee %(SFC),"[2]; slow evaporation from MeOH, SFC immediately after preparation",ee % (SFC): 68.6%*
same,ee %(SFC),"[2]; solid from crystallization from DMF/Acetone water, SFC immediately after preparation",ee % (SFC): −0.3%*
same,solubility in DCM/MeOH=90:10 mixture,[3],limited solubility
same,"HPLC/RRT Purity, RRT 1.00 (purity of III-1)",[4]; [6],96.23%
same,"HPLC/RRT Purity, impurity at RRT 0.41",[4]; [6],0.10%
same,"HPLC/RRT Purity, impurity at RRT 0.94",[4]; [6],0.62%
same,"HPLC/RRT Purity, impurity at RRT 1.37",[4]; [6],1.98%
same,"HPLC/RRT Purity, impurity at RRT 1.38",[4]; [6],0.31%
same,impurity @RRT 1.26 generated,"[4]; DCM/MeOH/DMF concentrated to 3V, 17 h at 40° C.",0.15%
same,impurity @RRT 0.74 generated,"[4]; MeOH, over 18 h at 34° C.",0.15%
same,purity after stirring in MeOH,"[4]; MeOH, over 18 h at 34° C.",96.0%
same,impurity @RRT 0.74,"[4]; MeOH, over 60 h at 50° C.",3.44%
same,purity after stirring in DCM/MeOH/DMF,"[4]; concentrated to 3V under 40° C., stirred for 17 h at 40° C.",94.57%
same,"HPLC/RRT Purity, RRT 1.00 (purity of III-1)",[4]; [7],94.57%
same,"HPLC/RRT Purity, impurity at RRT 0.41",[4]; [7],0.11%
same,"HPLC/RRT Purity, impurity at RRT 0.74",[4]; [7],0.03%
same,"HPLC/RRT Purity, impurity at RRT 0.94",[4]; [7],0.68%
same,"HPLC/RRT Purity, impurity at RRT 1.26",[4]; [7],0.33%
same,"HPLC/RRT Purity, impurity at RRT 1.37",[4]; [7],2.51%
same,"HPLC/RRT Purity, impurity at RRT 1.38",[4]; [7],0.46%
same,"HPLC/RRT Purity, RRT 1.00 (purity of III-1)",[4]; [8],93.53%
same,"HPLC/RRT Purity, impurity at RRT 0.41",[4]; [8],0.15%
same,"HPLC/RRT Purity, impurity at RRT 0.74",[4]; [8],2.49%
same,"HPLC/RRT Purity, impurity at RRT 0.94",[4]; [8],0.67%
same,"HPLC/RRT Purity, impurity at RRT 0.96",[4]; [8],0.20%
same,"HPLC/RRT Purity, impurity at RRT 1.26",[4]; [8],0.19%
same,"HPLC/RRT Purity, impurity at RRT 1.37",[4]; [8],2.13%
same,"HPLC/RRT Purity, impurity at RRT 1.38",[4]; [8],0.26%
same,"HPLC/RRT Purity, RRT 1.00 (purity of III-1)",[4]; [9],92.67%
same,"HPLC/RRT Purity, impurity at RRT 0.41",[4]; [9],0.17%
same,"HPLC/RRT Purity, impurity at RRT 0.74",[4]; [9],2.98%
same,"HPLC/RRT Purity, impurity at RRT 0.94",[4]; [9],0.67%
same,"HPLC/RRT Purity, impurity at RRT 0.96",[4]; [9],0.25%
same,"HPLC/RRT Purity, impurity at RRT 1.26",[4]; [9],0.38%
same,"HPLC/RRT Purity, impurity at RRT 1.37",[4]; [9],2.15%
same,"HPLC/RRT Purity, impurity at RRT 1.38",[4]; [9],0.20%
same,"HPLC/RRT Purity, RRT 1.00 (purity of III-1)",[4]; [10],91.45%
same,"HPLC/RRT Purity, impurity at RRT 0.41",[4]; [10],0.19%
same,"HPLC/RRT Purity, impurity at RRT 0.74",[4]; [10],3.45%
same,"HPLC/RRT Purity, impurity at RRT 0.94",[4]; [10],0.67%
same,"HPLC/RRT Purity, impurity at RRT 0.96",[4]; [10],0.40%
same,"HPLC/RRT Purity, impurity at RRT 1.26",[4]; [10],0.58%
same,"HPLC/RRT Purity, impurity at RRT 1.37",[4]; [10],2.26%
same,"HPLC/RRT Purity, impurity at RRT 1.38",[4]; [10],0.23%
same,"HPLC/RRT Purity, RRT 1.00 (purity of III-1)",[4]; [11],95.98%
same,"HPLC/RRT Purity, impurity at RRT 0.41",[4]; [11],0.10%
same,"HPLC/RRT Purity, impurity at RRT 0.74",[4]; [11],0.15%
same,"HPLC/RRT Purity, impurity at RRT 0.94",[4]; [11],0.59%
same,"HPLC/RRT Purity, impurity at RRT 1.37",[4]; [11],2.33%
same,"HPLC/RRT Purity, impurity at RRT 1.38",[4]; [11],0.29%
[2H][C@@]1(c2cc(F)ccc2Cl)NC(=O)c2cc(-c3ccc4ncnn4c3C#N)cc(NC(=O)c3cc(F)cc(C(F)(F)F)c3)c21 [IV-2],pIC50,[5],≥ 6.00
